Read-outs that look alike come from different tables or passages of the source.
Key:
[1] = tested on: Glomerella lagenarium (Colletotrichum lagenarium); test: Fungicidal activity against Glomerella lagenarium (Colletotrichum lagenarium) liquid culture / cucumber / preventative (anthracnose); format: cell-based; settings: Colletotrichum orbiculare, read-out: disease control
In short: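 Percent activity against the untreated check was derived from photometric growth measurements made 2 to 7 days after conidia in potato dextrose broth were combined with compound at 20 ppm. Cultures were kept dark at 24 °C and 96% humidity.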

[2] = tested on: Puccinia recondita f. Sp. Tritici; test: Fungicidal activity against Puccinia recondita f. sp. tritici / wheat / leaf disc preventative (brown rust); format: in vivo; settings: foliar, read-out: disease control
In short: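 Percent disease control relative to untreated check segments is scored once disease develops, 7 to 9 days after application. Wheat cv. Kanzler segments receive compound spray (200 ppm in formulation) one day before spore inoculation, then sit at 19° C. and 75% rh under 12 h light/12 h dark.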

[3] = tested on: Puccinia recondita f. Sp. Tritici; test: Fungicidal activity against Puccinia recondita f. sp. tritici / wheat / leaf disc curative (brown rust); format: in vivo; settings: foliar, 24 h, read-out: disease control
In short: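 % disease control vs untreated, scored 6–8 d post-application. Wheat cv. Kanzler segments, spore-inoculated, dark 19° C/75% RH; formulated cpd applied 1 d post-inoc; then 19° C, 75% RH, 12 h L/12 h D.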

[4] = 20 ppm in the applied formulation, liquid culture (PDB), growth inhibition measured photometrically after 3 to 4 days, compared to untreated control
[5] = 200 ppm in the applied formulation, wheat leaf segments, preventative, compared to untreated control leaf disks
[6] = 200 ppm in the applied formulation, wheat leaf segments, curative (applied 1 day after inoculation), compared to untreated control leaf disks

CCCC(=O)N(Cc1ccc(-c2noc(C(F)(F)F)n2)cc1)Cc1ccco1 [Compound 1.465, N-(2-furylmethyl)-N-[[4-[5-(trifluoromethyl)-1,2,4-oxadiazol-3-yl]phenyl]methyl]-butanamide]
≥ 80%: inhibition of growth at 20 ppm [1, 4] | pest or weed control at 200 ppm [2, 5] | pest or weed control at 200 ppm [3, 6]

COCCCC(=O)N(Cc1ccc(-c2noc(C(F)(F)F)n2)cc1)Cc1ccco1 [Compound 1.467, N-(2-furylmethyl)-4-methoxy-N-[[4-[5-(trifluoromethyl)-1,2,4-oxadiazol-3-yl]phenyl]methyl]-butanamide]
≥ 80%: inhibition of growth at 20 ppm [1, 4] | pest or weed control at 200 ppm [2, 5] | pest or weed control at 200 ppm [3, 6]

CC1(C(=O)N(Cc2ccc(-c3noc(C(F)(F)F)n3)cc2)Cc2ccco2)COC1 [Compound 1.468, N-(2-furylmethyl)-3-methyl-N-[[4-[5-(trifluoromethyl)-1,2,4-oxadiazol-3-yl]phenyl]methyl]-oxetane-3-carboxamide]
≥ 80%: inhibition of growth at 20 ppm [1, 4] | pest or weed control at 200 ppm [2, 5] | pest or weed control at 200 ppm [3, 6]

O=C(C1CCCO1)N(Cc1ccc(-c2noc(C(F)(F)F)n2)cc1)Cc1ccco1 (stereo not drawn) [Compound 1.469, N-(2-furylmethyl)-N-[[4-[5-(trifluoromethyl)-1,2,4-oxadiazol-3-yl]phenyl]methyl]-tetrahydrofuran-2-carboxamide]
≥ 80%: inhibition of growth at 20 ppm [1, 4] | pest or weed control at 200 ppm [2, 5] | pest or weed control at 200 ppm [3, 6]

O=C(C1OCCO1)N(Cc1ccc(-c2noc(C(F)(F)F)n2)cc1)Cc1ccco1 [Compound 1.473, N-(2-furylmethyl)-N-[[4-[5-(trifluoromethyl)-1,2,4-oxadiazol-3-yl]phenyl]methyl]-1,3-dioxolane-2-carboxamide]
≥ 80%: inhibition of growth at 20 ppm [1, 4] | pest or weed control at 200 ppm [2, 5] | pest or weed control at 200 ppm [3, 6]

O=C(C1CC1)N(Cc1ccc(-c2noc(C(F)(F)F)n2)cc1)Cc1ccco1 [Compound 1.474, N-(2-furylmethyl)-N-[[4-[5-(trifluoromethyl)-1,2,4-oxadiazol-3-yl]phenyl]methyl]-cyclopropane-carboxamide]
≥ 80%: inhibition of growth at 20 ppm [1, 4] | pest or weed control at 200 ppm [2, 5] | pest or weed control at 200 ppm [3, 6]

C=CCN(Cc1ccc(-c2noc(C(F)(F)F)n2)cc1)C(=O)CNC(C)=O [Compound 1.481, 2-acetamido-N-allyl-N-[[4-[5-(trifluoromethyl)-1,2,4-oxadiazol-3-yl]phenyl]methyl]-acetamide]
≥ 80%: inhibition of growth at 20 ppm [1, 4] | pest or weed control at 200 ppm [2, 5] | pest or weed control at 200 ppm [3, 6]

C=CCN(Cc1ccc(-c2noc(C(F)(F)F)n2)cc1)C(=O)CC#N [Compound 1.490, N-allyl-2-cyano-N-[[4-[5-(trifluoromethyl)-1,2,4-oxadiazol-3-yl]phenyl]methyl]-acetamide]
≥ 80%: inhibition of growth at 20 ppm [1, 4] | pest or weed control at 200 ppm [2, 5] | pest or weed control at 200 ppm [3, 6]

CCN(Cc1ccc(-c2noc(C(F)(F)F)n2)cc1)C(=O)CNC(C)=O [Compound 1.501, 2-acetamido-N-ethyl-N-[[4-[5-(trifluoromethyl)-1,2,4-oxadiazol-3-yl]phenyl]methyl]-acetamide]
≥ 80%: inhibition of growth at 20 ppm [1, 4] | pest or weed control at 200 ppm [2, 5] | pest or weed control at 200 ppm [3, 6]

CCN(Cc1ccc(-c2noc(C(F)(F)F)n2)cc1)C(=O)CCl [Compound 1.502, 2-chloro-N-ethyl-N-[[4-[5-(trifluoromethyl)-1,2,4-oxadiazol-3-yl]phenyl]methyl]-acetamide]
≥ 80%: inhibition of growth at 20 ppm [1, 4] | pest or weed control at 200 ppm [2, 5] | pest or weed control at 200 ppm [3, 6]

CN(Cc1ccc(-c2noc(C(F)(F)F)n2)cc1)C(=O)CCl [Compound 1.522, 2-chloro-N-methyl-N-[[4-[5-(trifluoromethyl)-1,2,4-oxadiazol-3-yl]phenyl]methyl]-acetamide]
≥ 80%: inhibition of growth at 20 ppm [1, 4] | pest or weed control at 200 ppm [2, 5] | pest or weed control at 200 ppm [3, 6]

COC(C)C(=O)N(C)Cc1ccc(-c2noc(C(F)(F)F)n2)cc1 (stereo not drawn) [Compound 1.530, 2-methoxy-N-methyl-N-[[4-[5-(trifluoromethyl)-1,2,4-oxadiazol-3-yl]phenyl]methyl]-propanamide]
≥ 80%: inhibition of growth at 20 ppm [1, 4] | pest or weed control at 200 ppm [2, 5] | pest or weed control at 200 ppm [3, 6]

O=C(C1CC1)N(CCO)Cc1ccc(-c2noc(C(F)(F)F)n2)cc1 [Compound 1.609, N-(2-hydroxyethyl)-N-[[4-[5-(trifluoromethyl)-1,2,4-oxadiazol-3-yl]phenyl]methyl]-cyclopropane-carboxamide]
≥ 80%: inhibition of growth at 20 ppm [1, 4] | pest or weed control at 200 ppm [2, 5] | pest or weed control at 200 ppm [3, 6]

COCCC(=O)N(CCO)Cc1ccc(-c2noc(C(F)(F)F)n2)cc1 [Compound 1.713, N-(2-hydroxyethyl)-3-methoxy-N-[[4-[5-(trifluoromethyl)-1,2,4-oxadiazol-3-yl]phenyl]methyl]-propanamide]
≥ 80%: inhibition of growth at 20 ppm [1, 4] | pest or weed control at 200 ppm [2, 5] | pest or weed control at 200 ppm [3, 6]

CON(Cc1ccc(-c2noc(C(F)(F)F)n2)cc1)C(=O)COC(F)F [Compound 1.785, 2-(difuoromethoxy)-N-methoxy-N-[[4-[5-(trifluoromethyl)-1,2,4-oxadiazol-3-yl]phenyl]methyl]-acetamide]
≥ 80%: inhibition of growth at 20 ppm [1, 4] | pest or weed control at 200 ppm [2, 5] | pest or weed control at 200 ppm [3, 6]

CON(Cc1ccc(-c2noc(C(F)(F)F)n2)cc1)C(=O)C(C)NC(C)=O (stereo not drawn) [Compound 1.795, 2-acetamido-N-methoxy-N-[[4-[5-(trifluoromethyl)-1,2,4-oxadiazol-3-yl]phenyl]methyl]-propanamide]
≥ 80%: inhibition of growth at 20 ppm [1, 4] | pest or weed control at 200 ppm [2, 5] | pest or weed control at 200 ppm [3, 6]

CCOC(=O)N(Cc1ccc(-c2noc(C(F)(F)F)n2)cc1)OC [Compound 2.1, ethyl N-methoxy-N-[[4-[5-(trifluoromethyl)-1,2,4-oxadiazol-3-yl]phenyl]methyl]-carbamate]
≥ 80%: inhibition of growth at 20 ppm [1, 4] | pest or weed control at 200 ppm [2, 5] | pest or weed control at 200 ppm [3, 6]

CON(Cc1ccc(-c2noc(C(F)(F)F)n2)cc1)C(=O)Oc1ccccc1 [Compound 2.6, phenyl N-methoxy-N-[[4-[5-(trifluoromethyl)-1,2,4-oxadiazol-3-yl]phenyl]methyl]-carbamate]
≥ 80%: inhibition of growth at 20 ppm [1] | pest or weed control at 200 ppm [2] | pest or weed control at 200 ppm [3]

CON(Cc1ccc(-c2noc(C(F)(F)F)n2)cc1)C(=O)OC(C)C [Compound 2.14, isopropyl N-methoxy-N-[[4-[5-(trifluoromethyl)-1,2,4-oxadiazol-3-yl]phenyl]methyl]-carbamate]
≥ 80%: inhibition of growth at 20 ppm [1, 4] | pest or weed control at 200 ppm [2, 5] | pest or weed control at 200 ppm [3, 6]

CON(Cc1ccc(-c2noc(C(F)(F)F)n2)cc1)C(=O)OCCCCl [Compound 2.16, 3-chloropropyl N-methoxy-N-[[4-[5-(trifluoromethyl)-1,2,4-oxadiazol-3-yl]phenyl]methyl]-carbamate]
≥ 80%: inhibition of growth at 20 ppm [1, 4] | pest or weed control at 200 ppm [2, 5] | pest or weed control at 200 ppm [3, 6]

COC(=O)N(Cc1ccc(-c2noc(C(F)(F)F)n2)cc1)CC(F)(F)F [Compound 2.22, methyl N-(2,2,2-trifluoroethyl)-N-[[4-[5-(trifluoromethyl)-1,2,4-oxadiazol-3-yl]phenyl]methyl]-carbamate]
≥ 80%: inhibition of growth at 20 ppm [1, 4] | pest or weed control at 200 ppm [2, 5] | pest or weed control at 200 ppm [3, 6]

CON(Cc1ccc(-c2noc(C(F)(F)F)n2)cc1)C(=O)NCC(C)(C)C [Compound 3.10, 3-(2,2-dimethylpropyl)-1-methoxy-1-[[4-[5-(trifluoromethyl)-1,2,4-oxadiazol-3-yl]phenyl]methyl]urea]
≥ 80%: inhibition of growth at 20 ppm [1, 4] | pest or weed control at 200 ppm [2, 5] | pest or weed control at 200 ppm [3, 6]

CCOC(=O)CNC(=O)N(Cc1ccc(-c2noc(C(F)(F)F)n2)cc1)OC [Compound 3.49, ethyl 2-[[methoxy-[[4-[5-(trifluoromethyl)-1,2,4-oxadiazol-3-yl]phenyl]methyl]-carbamoyl]-amino]acetate]
≥ 80%: inhibition of growth at 20 ppm [1, 4] | pest or weed control at 200 ppm [2, 5] | pest or weed control at 200 ppm [3, 6]

COCCN(C)C(=O)N(Cc1ccc(-c2noc(C(F)(F)F)n2)cc1)OC [Compound 3.63, 1-methoxy-3-(2-methoxyethyl)-3-methyl-1-[[4-[5-(trifluoromethyl)-1,2,4-oxadiazol-3-yl]phenyl]methyl]urea]
≥ 80%: inhibition of growth at 20 ppm [1, 4] | pest or weed control at 200 ppm [2, 5] | pest or weed control at 200 ppm [3, 6]

CCN(CC)C(=O)N(Cc1ccc(-c2noc(C(F)(F)F)n2)cc1)OC [Compound 3.64, 1,1-diethyl-3-methoxy-3-[[4-[5-(trifluoromethyl)-1,2,4-oxadiazol-3-yl]phenyl]methyl]urea]
≥ 80%: inhibition of growth at 20 ppm [1, 4] | pest or weed control at 200 ppm [2, 5] | pest or weed control at 200 ppm [3, 6]

CON(Cc1ccc(-c2noc(C(F)(F)F)n2)cc1)C(=O)N(C)C1CCC1 [Compound 3.65, 1-cyclobutyl-3-methoxy-1-methyl-3-[[4-[5-(trifluoromethyl)-1,2,4-oxadiazol-3-yl]phenyl]methyl]urea]
≥ 80%: inhibition of growth at 20 ppm [1, 4] | pest or weed control at 200 ppm [2, 5] | pest or weed control at 200 ppm [3, 6]

Reference: patent publication US11180462B2, “Microbiocidal oxadiazole derivatives” (SYNGENTA PARTICIPATIONS AG, priority 2015, dated 2021)
